Data taken from the NIST ThermoML archive (doi:10.1021/acs.jced.5b00369).

Assay: relative permittivity at zero frequency (dimensionless); xn = mol fraction of the nth substance listed
Conditions: 101 kPa, Liquid, two-terminal dielectric cell

CC[N+](=O)[O-] [nitroethane] + Cc1ccc(C)cc1
298.15 K
Conditions | relative permittivity at zero frequency
x1 = 0.001685 | 2.2782
x1 = 0.009202 | 2.35917
x1 = 0.01833 | 2.45822
x1 = 0.02729 | 2.55599
x1 = 0.03608 | 2.65295
x1 = 0.04032 | 2.69936
x1 = 0.05043 | 2.81296
x1 = 0.05899 | 2.91009
x1 = 0.0674 | 3.00647
x1 = 0.07566 | 3.10223

CC[N+](=O)[O-] [nitroethane] + ClC(Cl)(Cl)Cl
298.15 K
Conditions | relative permittivity at zero frequency
x1 = 0.003529 | 2.27902
x1 = 0.00724 | 2.3313
x1 = 0.01443 | 2.4321
x1 = 0.02153 | 2.53048
x1 = 0.02851 | 2.62767
x1 = 0.0311 | 2.6639
x1 = 0.03397 | 2.7038
x1 = 0.04093 | 2.80121
x1 = 0.04779 | 2.89785
x1 = 0.05456 | 2.9938

C[N+](=O)[O-] [nitromethane] + c1ccccc1
Conditions | relative permittivity at zero frequency
298.15 K, x1 = 0.000817 | 2.28834
298.15 K, x1 = 0.001228 | 2.294
298.15 K, x1 = 0.001638 | 2.29956
298.15 K, x1 = 0.002045 | 2.30518
298.15 K, x1 = 0.00245 | 2.31071
298.15 K, x1 = 0.003332 | 2.32281
298.15 K, x1 = 0.003559 | 2.32593
298.15 K, x1 = 0.004459 | 2.33824
298.15 K, x1 = 0.005656 | 2.35464
298.15 K, x1 = 0.006833 | 2.37085
298.15 K, x1 = 0.007322 | 2.37753
298.15 K, x1 = 0.007982 | 2.38639
298.15 K, x1 = 0.01242 | 2.44757
298.15 K, x1 = 0.01595 | 2.49623
298.15 K, x1 = 0.02031 | 2.55663
298.15 K, x1 = 0.02465 | 2.61628
298.15 K, x1 = 0.0332 | 2.7354
298.15 K, x1 = 0.04458 | 2.89495
298.15 K, x1 = 0.05494 | 3.03914
298.15 K, x1 = 0.06641 | 3.20367
298.15 K, x1 = 0.08012 | 3.40373
318.15 K, x1 = 0.000437 | 2.19342
318.15 K, x1 = 0.0008868 | 2.19856
318.15 K, x1 = 0.001333 | 2.20368
318.15 K, x1 = 0.001778 | 2.20876
318.15 K, x1 = 0.002219 | 2.21383
318.15 K, x1 = 0.002658 | 2.2188
318.15 K, x1 = 0.003857 | 2.23245
318.15 K, x1 = 0.004835 | 2.24352
318.15 K, x1 = 0.006131 | 2.25821
318.15 K, x1 = 0.007631 | 2.27516
318.15 K, x1 = 0.009325 | 2.29411
318.15 K, x1 = 0.01132 | 2.31664
318.15 K, x1 = 0.01305 | 2.33622
318.15 K, x1 = 0.0149 | 2.35704
318.15 K, x1 = 0.01628 | 2.37368
318.15 K, x1 = 0.02047 | 2.42114
318.15 K, x1 = 0.02519 | 2.47484
318.15 K, x1 = 0.03005 | 2.53001
318.15 K, x1 = 0.0345 | 2.58032
318.15 K, x1 = 0.04273 | 2.67386
318.15 K, x1 = 0.05416 | 2.80502
318.15 K, x1 = 0.06683 | 2.9527
318.15 K, x1 = 0.07816 | 3.08644
318.15 K, x1 = 0.09171 | 3.24999

ClC(Cl)(Cl)Cl [tetrachloromethane] + C[N+](=O)[O-]
Conditions | relative permittivity at zero frequency
298.15 K, x2 = 0.00098 | 2.24081
298.15 K, x2 = 0.001471 | 2.24714
298.15 K, x2 = 0.001979 | 2.25361
298.15 K, x2 = 0.002444 | 2.25959
298.15 K, x2 = 0.002927 | 2.26574
298.15 K, x2 = 0.003884 | 2.27791
298.15 K, x2 = 0.004245 | 2.28249
298.15 K, x2 = 0.00484 | 2.29002
298.15 K, x2 = 0.005797 | 2.30213
298.15 K, x2 = 0.006743 | 2.31404
298.15 K, x2 = 0.007679 | 2.32583
298.15 K, x2 = 0.008374 | 2.33457
298.15 K, x2 = 0.01041 | 2.35982
298.15 K, x2 = 0.01242 | 2.38483
298.15 K, x2 = 0.01439 | 2.40939
298.15 K, x2 = 0.01577 | 2.42642
298.15 K, x2 = 0.01737 | 2.44616
298.15 K, x2 = 0.01871 | 2.46233
298.15 K, x2 = 0.02204 | 2.50367
298.15 K, x2 = 0.02674 | 2.56122
298.15 K, x2 = 0.03418 | 2.65322
298.15 K, x2 = 0.04333 | 2.76524
298.15 K, x2 = 0.0523 | 2.87591
298.15 K, x2 = 0.0567 | 2.92988
318.15 K, x2 = 0.000162 | 2.23812
318.15 K, x2 = 0.000418 | 2.24125
318.15 K, x2 = 0.0008265 | 2.24641
318.15 K, x2 = 0.001238 | 2.25158
318.15 K, x2 = 0.001648 | 2.25667
318.15 K, x2 = 0.002055 | 2.26176
318.15 K, x2 = 0.00246 | 2.26679
318.15 K, x2 = 0.003263 | 2.2768
318.15 K, x2 = 0.003558 | 2.28051
318.15 K, x2 = 0.004468 | 2.29186
318.15 K, x2 = 0.005663 | 2.30678
318.15 K, x2 = 0.007033 | 2.3239
318.15 K, x2 = 0.007748 | 2.33263
318.15 K, x2 = 0.009707 | 2.35737
318.15 K, x2 = 0.0113 | 2.37756
318.15 K, x2 = 0.01572 | 2.4327
318.15 K, x2 = 0.02009 | 2.48822
318.15 K, x2 = 0.02486 | 2.54795
318.15 K, x2 = 0.02873 | 2.59732
318.15 K, x2 = 0.03299 | 2.65111
318.15 K, x2 = 0.0414 | 2.75865
318.15 K, x2 = 0.04472 | 2.80151
318.15 K, x2 = 0.054 | 2.91886
318.15 K, x2 = 0.06623 | 3.07885
318.15 K, x2 = 0.07426 | 3.18574
318.15 K, x2 = 0.08027 | 3.26614
